Source: PubChem BioAssay (NCI)
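Cells were grown in 96-well plates and exposed to each compound for 48 hours at five concentrations; endpoints were interpolated linearly between bracketing concentrations, or set to the highest concentration if not reached. TGI: concentration producing complete growth inhibition.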

Experiments:
Experiment in all cases: inhibition of tumour cell growth, NCI panel, 48 h
HCC-2998 colon = tested on: HCC-2998 colon
UACC-257 melanoma = tested on: UACC-257 melanoma
UACC-62 melanoma = tested on: UACC-62 melanoma
MOLT-4 leukemia = tested on: MOLT-4 leukemia
UO-31 renal = tested on: UO-31 renal
HCT-15 colon = tested on: HCT-15 colon
DU-145 prostate = tested on: DU-145 prostate
RXF 393 renal = tested on: RXF 393 renal
KM12 colon = tested on: KM12 colon

Compound	TGI (HCC-2998 colon) [µM]	TGI (UACC-257 melanoma) [µM]	TGI (UACC-62 melanoma) [µM]	TGI (MOLT-4 leukemia) [µM]	TGI (UO-31 renal) [µM]	TGI (HCT-15 colon) [µM]	TGI (DU-145 prostate) [µM]	TGI (RXF 393 renal) [µM]	TGI (KM12 colon) [µM]
COc1cn2c(cc1=O)COc1ccc(-c3ccccc3)cc1-2	> 100	> 87.1	> 100	> 100	> 100	> 100	> 100	> 100	> 100
CCCCCCCCCCCCOC1C(COCCN2CCCC2)OC2OC(C)(C)OC21 (centres undefined)	–	3.14	3.36	10.4	2.96	3.17	23.1	3.17	–
CNc1ccc2nc(-c3ccc(OC(=O)N(C)C)cc3)cn2c1	81.2	> 100	35.1	43	35.4	40.2	> 100	26.1	32.3
O=C1c2ccccc2NC2C(O)c3ccccc3N12 (centres undefined)	> 100	37.7	56.8	58.7	> 100	> 100	> 100	> 100	> 100
CC(=O)Oc1ccc2cc(Oc3ccc(Cl)cc3)c(=O)oc2c1	> 100	78.7	–	–	> 100	> 100	> 100	> 100	> 100
COc1ccc(Cn2nc(OCc3ccccn3)c3cc([N+](=O)[O-])ccc32)cc1	> 100	> 100	> 100	> 100	> 100	> 100	> 100	> 100	> 100
Cc1cc(S(=O)(=O)Nc2n[nH]c(Nc3ccccc3)n2)c(S)cc1Cl	> 10	> 10	> 10	> 10	> 10	> 10	> 10	> 10	> 10
Cc1cnc(Cl)nc1C(C#N)c1nc2ccccc2n1C (centres undefined)	–	> 100	–	> 100	> 100	> 100	> 100	> 100	> 100
N#Cc1c(=O)c2cccnc2n2c1[nH]c1ccccc12	> 100	> 100	> 100	> 100	> 100	> 100	> 100	> 100	> 100
OC(CC(c1ccccc1)c1ccc(Cl)cc1)c1ccc(Cl)cc1 (centres undefined)	> 100	> 100	> 100	> 100	> 100	> 100	> 100	65.8	> 100
Cc1ccc2ccccc2c1CC1S(=O)(=O)OCCOS1(=O)=O	15.8	41.2	–	27.5	27.1	42.9	24.1	–	29.3
CCCCCCCCCCCCC(=O)NCC(=O)NC(Cc1ccccc1)C(=O)Oc1ccc([N+](=O)[O-])cc1 (centres undefined)	> 100	> 100	> 100	–	> 100	> 100	> 100	> 100	> 100
